Experiments:
[1] = biological target: T1, Human recombinant MMP-2 (Homo sapiens, UniProt P08253); experiment: In vitro MMP inhibition, Ki determination (fluorogenic substrate II); assay type: biochemical
T1 construct: made in house; host or cells: MMP-2-transfected p2AHT2 cells
T1 sequence (P08253 110-660): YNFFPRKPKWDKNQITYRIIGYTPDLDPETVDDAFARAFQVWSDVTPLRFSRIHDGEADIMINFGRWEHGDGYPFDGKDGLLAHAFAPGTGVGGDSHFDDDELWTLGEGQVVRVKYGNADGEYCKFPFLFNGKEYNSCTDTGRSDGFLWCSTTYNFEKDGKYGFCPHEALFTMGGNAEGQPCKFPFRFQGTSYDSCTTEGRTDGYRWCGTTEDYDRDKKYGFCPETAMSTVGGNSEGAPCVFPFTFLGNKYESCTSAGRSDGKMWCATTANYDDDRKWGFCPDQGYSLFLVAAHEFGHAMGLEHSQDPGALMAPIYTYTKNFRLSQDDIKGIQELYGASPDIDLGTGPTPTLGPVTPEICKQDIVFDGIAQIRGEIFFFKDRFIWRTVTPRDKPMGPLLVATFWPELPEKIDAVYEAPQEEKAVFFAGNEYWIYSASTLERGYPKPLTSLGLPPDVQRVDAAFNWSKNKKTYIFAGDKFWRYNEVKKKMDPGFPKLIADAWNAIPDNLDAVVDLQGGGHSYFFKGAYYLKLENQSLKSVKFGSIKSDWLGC

[2] = biological target: T2, Human recombinant MMP-14 (Homo sapiens, UniProt P50281); experiment: as above; assay type: biochemical
T2 construct: The catalytic domain enzyme was expressed in E. coli inclusion bodies, solubilized in urea; made in house
How it was run: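 Refolded E. coli-expressed MMP-14 catalytic domain, APMA- or trypsin-activated, incubated 1 h at room temperature with 4 μM fluorogenic substrate II in pH 7.5 Tris/NaCl/CaCl2 buffer; fluorescence read at 330/420 nm. Ki from Morrison-equation non-linear regression, substrate at or below Km, uncorrected for substrate.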

[3] = substrate (II) 4 μM, 1 hr room temperature, apparent Ki, values in parenthesis

| Structure (SMILES) | Ki ([1]; value in parenthesis) [nM] | Ki ([2]; value in parenthesis) [µM] | Ki ([1]; value in parentheses) [nM] | Ki ([2]; value in parentheses) [µM] | further results |
| --- | --- | --- | --- | --- | --- |
| Cc1ccccc1-c1cccc(CCOc2ccc(S(=O)(=O)C3(C(=O)NO)CCOCC3)cc2)c1 [Example 116] | 1250 | > 10 |  |  |  |
| COCCN1CCC(C(=O)NO)(S(=O)(=O)c2ccc(OCCCc3nc(-c4ccc(CC(C)C)cc4C)no3)cc2)CC1 [Example 128] | 1130 | > 10 |  |  |  |
| O=C(NO)C1(S(=O)(=O)c2ccc(OCCc3cccc(-c4cc(Cl)cc(Cl)c4)c3)cc2)CCOCC1 [Example 126] | 6360 | > 10 |  |  |  |
| COCCN1CCC(C(=O)NO)(S(=O)(=O)c2ccc(OCCCc3cncc(-c4ccccc4)c3)cc2)CC1 [Example 508] |  |  | 22.8 | 2.79 |  |
| Cc1cc(-c2cccc(CCOc3ccc(S(=O)(=O)C4(C(=O)NO)CCOCC4)cc3)c2)ccc1Cl [Example 118] | 2650 | > 10 |  |  |  |
| O=C(NO)C1(S(=O)(=O)c2ccc(OCCc3cccc(-c4ccc(Cl)cc4Cl)c3)cc2)CCOCC1 [Example 124] | 5730 | > 10 |  |  |  |
| COCCN1CCC(C(=O)NO)(S(=O)(=O)c2ccc(OCCCc3cccc(-c4ccc(F)cc4F)c3)cc2)CC1 [Example 513] |  |  | 880 | 9.27 |  |
| COCCN1CCC(C(=O)NO)(S(=O)(=O)c2ccc(OCCCc3cccc(-c4cccs4)c3)cc2)CC1 [Example 510] |  |  | 7.85 | 2.18 |  |
| O=C(NCCSc1ccc(S(=O)(=O)C2(C(=O)NO)CCOCC2)cc1)c1nc2ccccc2s1 [Example 598] |  |  | 599 | > 10 |  |
| O=C(NO)C1(S(=O)(=O)c2ccc(OCCc3cccc(-c4cccc(F)c4)c3)cc2)CCOCC1 [Example 111] | 769 | > 10 |  |  |  |
| O=C(NO)C1(S(=O)(=O)c2ccc(OCCCc3cccc(-c4ccc(O)cc4)c3)cc2)CCOCC1 [Example 529] |  |  | 3550 | > 10 |  |
| COCCN1CCC(C(=O)NO)(S(=O)(=O)c2ccc(OCCCc3cccc(-c4ccc(Cl)cc4)c3)cc2)CC1 [Example 50] |  |  |  |  | Ki [1, 3]: 1130 nM; Ki [2, 3]: > 10 µM |
| CCCCc1ccc(COc2ccc(S(=O)(=O)C3(C(=O)NO)CCOCC3)cc2)cn1 [Example 551] |  |  | 5.07 | 2.06 |  |
| Cc1ccc(-c2cccc(CCOc3ccc(S(=O)(=O)C4(C(=O)NO)CCOCC4)cc3)c2)cc1C [Example 117] | 3640 | > 10 |  |  |  |
| CCCCc1ccc(CCCOc2ccc(S(=O)(=O)C3(C(=O)NO)CCOCC3)cc2)cn1 [Example 533] |  |  | 29.3 | 6.68 |  |
| COCCN1CCC(C(=O)NO)(S(=O)(=O)c2ccc(OCCCc3cccc(-c4cccc(F)c4)c3)cc2)CC1 [Example 511] |  |  | 526 | > 10 |  |
| CCc1ccc(CCCOc2ccc(S(=O)(=O)C3(C(=O)NO)CCOCC3)cc2)cn1 [Example 535] |  |  | 23.2 | 3.87 |  |
| COCCN1CCC(C(=O)NO)(S(=O)(=O)c2ccc(OCCNC(=O)c3cc4ccccc4o3)cc2)CC1 [Example 553] |  |  | 7.8 | 2.26 |  |
| COCCN1CCC(C(=O)NO)(S(=O)(=O)c2ccc(OCCCc3cccc(-c4cccnc4)c3)cc2)CC1 [Example 509] |  |  | 89.3 | 4.16 |  |
| O=C(NO)C1(S(=O)(=O)c2ccc(OCCCc3cccc(-c4cccc(O)c4)c3)cc2)CCOCC1 [Example 530] |  |  | 699 | > 10 |  |
| O=C(NCCSc1ccc(S(=O)(=O)C2(C(=O)NO)CCN(C3CC3)CC2)cc1)c1cc2ccccc2o1 [Example 542] |  |  | 234 | > 10 |  |
| O=C(NO)C1(S(=O)(=O)c2ccc(OCCc3ccc(-c4ccc(O)cc4)cc3)cc2)CCOCC1 [Example 531] |  |  | 337 | > 10 |  |
| O=C(NO)C1(S(=O)(=O)c2ccc(OCCc3ccccn3)cc2)CCOCC1 [Example 556] |  |  | 68.1 | 3.5 |  |
| O=C(NO)C1(S(=O)(=O)c2ccc(OCCCc3cccc(-c4ccc(F)c(F)c4)c3)cc2)CCOCC1 [Example 170] | 1410 | > 10 |  |  |  |
| Cc1cc(-c2cccc(CCCOc3ccc(S(=O)(=O)C4(C(=O)NO)CCOCC4)cc3)c2)ccc1F [Example 168] | 5500 | > 10 |  |  |  |
